Test results as given in patent US10126303B2, “Methods for identifying compounds as modulators of SLC38A9 interactions” (Whitehead Institute for Biomedical Research, priority 2014, dated 2018).
Values after ≈ are worked out from the molar mass of the structure shown.

T1: SLC38A9.1 (Homo sapiens, UniProt Q8NBW4)
T1 construct: made in house; host or cells: HEK-293T cells stably expressing FLAG-SLC38A9.1
T1 sequence (Q8NBW4 1-561): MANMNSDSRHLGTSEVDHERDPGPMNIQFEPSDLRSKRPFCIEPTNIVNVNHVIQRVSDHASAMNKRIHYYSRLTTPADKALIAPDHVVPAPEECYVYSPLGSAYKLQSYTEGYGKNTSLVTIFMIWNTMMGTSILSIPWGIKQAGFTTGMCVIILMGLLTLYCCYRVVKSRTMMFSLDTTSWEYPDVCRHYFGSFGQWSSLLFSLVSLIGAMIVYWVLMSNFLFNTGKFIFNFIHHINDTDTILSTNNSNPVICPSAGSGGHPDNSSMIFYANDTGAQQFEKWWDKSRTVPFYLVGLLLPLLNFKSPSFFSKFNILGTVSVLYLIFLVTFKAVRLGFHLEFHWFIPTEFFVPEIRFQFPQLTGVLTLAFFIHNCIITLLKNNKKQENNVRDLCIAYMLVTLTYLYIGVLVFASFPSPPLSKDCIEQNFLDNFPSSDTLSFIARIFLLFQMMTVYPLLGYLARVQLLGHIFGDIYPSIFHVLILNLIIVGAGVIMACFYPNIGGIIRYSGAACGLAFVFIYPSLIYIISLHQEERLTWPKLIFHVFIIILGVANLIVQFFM


What was measured:
[1] = target: T1, SLC38A9.1; assay: Competition of [3H]arginine transport by SLC38A9.1 proteoliposomes using unlabeled amino acids; assay type: biochemical; settings: 0.5 μM [3H]arginine; 100 mM unlabeled amino acid; 75 min
Description: (§1) SLC38A9.1 proteoliposomes or liposome controls were centrifuged at 100,000 g for 30 min. in a TLA-100.3 rotor and resuspended in a smaller volume of outside buffer such that they could be added to a larger volume of 100 mM unlabeled amino acid (final concentration) supplemented with outside buffer components. […] At such high concentrations, it is important to adjust all amino acid solutions to pH 7.4. Assays were initiated by addition of 0.5 μM [^3H]arginine to the amino acid buffer solution followed by the addition of SLC38A9.1 proteoliposomes or liposome controls.
For steady-state kinetics experiments, time points were collected as described above and to assess substrate specificity, competition experiments were collected at 75 min. For efflux experiments, SLC38A9.1 proteoliposomes or liposome controls were loaded with [^3H]arginine as described above for an import assay for 1.5 hrs. To remove external amino acids, the reactions were applied to PD10 columns pre-equilibrated with outside buffer, and time points were collected as described above. Scintillation counts from liposome controls were subtracted from that of SLC38A9.1 proteoliposomes.

[2] = test system: mTORC1; assay: Amino acid-induced activation of the mTORC1 pathway in SLC38A9-null HEK-293T cells (immunoblot); assay type: cell-based; settings: CRISPR/CAS9 knockout, starved 50 min, stimulated 10 min, range of concentrations
Description: FIGS. 5A-SE depict the results of experiments arginine and related immunoblots depicting impairment of induced activation of the mTORC1 pathway. FIG. 5A depicts the time dependent uptake of [^3H]-arginine by proteoliposomes containing SCL38A9.1. FIG. SB, left panel, depicts the time course of [^3H]arginine uptake, given fixed [^3H]arginine (0.5 μM) and increasing concentrations of unlabeled arginine. FIG. 5B, right panel, depicts velocity, calculated from left panel, as a function of total arginine concentration. Data were fitted to the Michaelis-Menton equation. FIG. 5C depicts the time-dependent efflux of SLC38A9.1 proteoliposomes following 1.5 hr loading with 0.5 μM [^3H]arginine. FIG. 5D depicts the competition of 0.5 μM [^3H]arginine transport by SLC38A9.1 using 100 mM of indicated unlabeled amino acids. The error bars in FIGS. 5A-5D represent standard deviation derived from at least 3 measurements. […]
HEK-293T cells (750,000/well) were plated into 6 well dishes and transfected 16 hours later with 1 μg of pX459 expressing above guides using XtremeGene9. […] Clones were expanded and evaluated for knockout status by western analysis for SLC38A9. These clones were evaluated for amino acid response as described above.

[3] = Solubility limit of amino acid in the transport assay solution; assay type: physicochemical
Description: as §1

[4] = substrate: N=C(N)NCCC[C@H](N)C(=O)O; assay: Steady-state kinetics of [3H]arginine uptake by SLC38A9.1 proteoliposomes; assay type: biochemical, human; settings: other: [3H]arginine 0.5 μM plus increasing unlabeled arginine, 30° C.
Description: HEK-293T cells stably expressing FLAG-SLC38A9.1 were harvested as described above for immunoprecipitations, except cells were lysed in 40 mM HEPES pH 7.4, 0.5% Triton X-100, 1 mM DTT, and protease inhibitors. Following a 3 hr. immunoprecipitation, FLAG-affinity beads were washed twice for 5 min each in lysis buffer supplemented with 500 mM NaCl. Beads were equilibrated with inside buffer (20 mM MES pH 5, 90 mM KCl 10 mM NaCl) supplemented with 10% glycerol by washing them 5 times. FLAG-affinity purified SLC38A9.1 protein was eluted in glycerol-supplemented inside buffer containing 1 mg/mL FLAG peptide by rotation for 30 min. Protein was concentrated using Amicon centrifuge filters to about 1 mg/mL and snap-frozen in liquid nitrogen and stored at −80° C.
To form liposomes, chloroform-dissolved phosphatidylcholine (PC, 50 mg) was evaporated using dry nitrogen to yield a lipid film in a round bottom flask and desiccated overnight under vacuum. Lipids were hydrated in inside buffer at 50 mg/mL with light sonication in a water bath (Branson M2800H) and split into 100 μL aliquots in Eppendorf tubes. Aliquoted lipids were clarified using water bath sonication and recombined and extruded through a 100 nm membrane with 15 passes (Avanti 61000). […]

Molecule	competition of radiolabelled arginine transport [1]	activation of mTORC1 by the amino acid in SLC38A9 knockouts vs control cells [2]	other results
NCC(=O)O [glycine]	least effective competitor	–	–
N=C(N)NCCC[C@H](N)C(=O)O [arginine]	–	strongly repressed at all arginine concentrations	–
N[C@@H](Cc1c[nH]cn1)C(=O)O [histidine]	competed radiolabelled arginine transport to similar degrees as arginine	–	–
NCCCC[C@H](N)C(=O)O [lysine]	competed radiolabelled arginine transport to similar degrees as arginine	–	–
CC(C)C[C@H](N)C(=O)O [leucine]	modest effect	only blunted	solubility [3]: ~130 mM (≈ 17.1 mg/mL)
SLC38A9.1 (Homo sapiens) (protein, made in house; host or cells: HEK-293T cells stably expressing FLAG-SLC38A9.1) MANMNSDSRHLGTSEVDHERDPGPMNIQFEPSDLRSKRPFCIEPTNIVNVNHVIQRVSDHASAMNKRIHYYSRLTTPADKALIAPDHVVPAPEECYVYSPLGSAYKLQSYTEGYGKNTSLVTIFMIWNTMMGTSILSIPWGIKQAGFTTGMCVIILMGLLTLYCCYRVVKSRTMMFSLDTTSWEYPDVCRHYFGSFGQWSSLLFSLVSLIGAMIVYWVLMSNFLFNTGKFIFNFIHHINDTDTILSTNNSNPVICPSAGSGGHPDNSSMIFYANDTGAQQFEKWWDKSRTVPFYLVGLLLPLLNFKSPSFFSKFNILGTVSVLYLIFLVTFKAVRLGFHLEFHWFIPTEFFVPEIRFQFPQLTGVLTLAFFIHNCIITLLKNNKKQENNVRDLCIAYMLVTLTYLYIGVLVFASFPSPPLSKDCIEQNFLDNFPSSDTLSFIARIFLLFQMMTVYPLLGYLARVQLLGHIFGDIYPSIFHVLILNLIIVGAGVIMACFYPNIGGIIRYSGAACGLAFVFIYPSLIYIISLHQEERLTWPKLIFHVFIIILGVANLIVQFFM	–	–	Km [4]: 39 mM; kcat [4]: 0.03 s⁻¹
